ChEMBL document CHEMBL1128380, “Antimalarial activity of novel ring-contracted artemisinin derivatives” (1995)

Experiments:
Format in all cases: functional
[1] = tested on: Mus musculus; assay: Antimalarial activity was determined by Blood schizonticidal activity in mice (Mus musculus) infected with Plasmodium berghei K173 at 25 (mg/kgx5) peroral dosage; Cured/treated = 0/6 on day 7
[2] = tested on: Mus musculus; assay: Antimalarial activity was determined by Blood schizonticidal activity in mice (Mus musculus) infected with Plasmodium berghei K173 at 2.5 (mg/kgx5) subcutaneous dosage; Cured/treated = 0/6 on day 7
[3] = tested on: Mus musculus; assay: Antimalarial activity was determined by blood schizonticidal activity in mice (Mus musculus) infected with Plasmodium berghei K173 at 5 (mg/kg x5) subcutaneous dosage; Cured/treated = 6/6
[4] = tested on: Mus musculus; assay: Antimalarial activity was determined by Blood schizonticidal activity in mice (Mus musculus) infected with Plasmodium berghei K173 at 10 (mg/kgx5) subcutaneous dosage; Cured/treated = 0/4 on day 7
[5] = tested on: Mus musculus; assay: Antimalarial activity was determined by Blood schizonticidal activity in mice (Mus musculus) infected with Plasmodium berghei K173 at 5 (mg/kg x5) subcutaneous dosage; Cured/treated = 0/6 on day 7
[6] = tested on: Mus musculus; assay: Antimalarial activity was determined by blood schizonticidal activity in mice (Mus musculus) infected with Plasmodium berghei K173 at 25 (mg/kgx5) peroral dosage; Cured/treated = 0/6
[7] = tested on: Mus musculus; assay: Antimalarial activity was determined by Blood schizonticidal activity in mice (Mus musculus) infected with Plasmodium berghei K173 at 20 (mg/kg x5) peroral dosage; Cured/treated = 0/6
[8] = tested on: Mus musculus; assay: Antimalarial activity was determined by Blood schizonticidal activity in mice (Mus musculus) infected with Plasmodium berghei K173 at 5 (mg/kg x5) subcutaneous dosage; Cured/treated = 5/6 on day 7
[9] = tested on: Mus musculus; assay: Antimalarial activity was determined by Blood schizonticidal activity in mice (Mus musculus) infected with Plasmodium berghei K173 at 5 (mg/kg x5) subcutaneous dosage; Cured/treated = 6/6 on day 7
[10] = tested on: Mus musculus; assay: Antimalarial activity was determined by blood schizonticidal activity in mice (Mus musculus) infected with Plasmodium berghei K173 at 10 (mg/kgx5) subcutaneous dosage; Cured/treated = 0/6 on day 7
[11] = tested on: Mus musculus; assay: Antimalarial activity was determined by blood schizonticidal activity in mice (Mus musculus) infected with Plasmodium berghei K173 at 1.25 (mg/kgx5) subcutaneous dosage; Cured/treated = 26/34 on day 7
[12] = tested on: Mus musculus; assay: Antimalarial activity was determined by blood schizonticidal activity in mice (Mus musculus) infected with Plasmodium berghei NS at 2.5 (mg/kgx5) subcutaneous dosage; Cured/treated = 11/12
[13] = tested on: Mus musculus; assay: Antimalarial activity was determined by Blood schizonticidal activity in mice (Mus musculus) infected with Plasmodium berghei K173 at 2.5 (mg/kgx5) subcutaneous dosage; Cured/treated = 28/28 on day 7
[14] = tested on: Mus musculus; assay: Antimalarial activity was determined by Blood schizonticidal activity in mice (Mus musculus) infected with Plasmodium berghei K173 at 15 (mg/kg x5) peroral dosage; Cured/treated = 19/22 on day 7
[15] = tested on: Mus musculus; assay: Antimalarial activity was determined by Blood schizonticidal activity in mice (Mus musculus) infected with Plasmodium berghei K173 at 25 (mg/kgx5) peroral dosage; Cured/treated = 16/16
[16] = tested on: Mus musculus; assay: Antimalarial activity was determined by Blood schizonticidal activity in mice (Mus musculus) infected with Plasmodium berghei K173 at 1 (mg/kg x5) subcutaneous dosage; Cured/treated = 10/22 on day 7
[17] = tested on: Mus musculus; assay: Antimalarial activity was determined by Blood schizonticidal activity in mice (Mus musculus) infected with Plasmodium berghei NS at 5 (mg/kg x5) subcutaneous dosage; Cured/treated = 22/22
[18] = tested on: Mus musculus; assay: Antimalarial activity was determined by Blood schizonticidal activity in mice (Mus musculus) infected with Plasmodium berghei NS at 25 (mg/kgx5) peroral dosage; Cured/treated = 6/6
[19] = tested on: Mus musculus; assay: Antimalarial activity was determined by blood schizonticidal activity in mice (Mus musculus) infected with Plasmodium berghei K173 at 10 (mg/kgx5) peroral dosage; Cured/treated = 34/39 on day 7
[20] = tested on: Mus musculus; assay: Antimalarial activity was determined by Blood schizonticidal activity in mice (Mus musculus) infected with Plasmodium berghei K173 at 5 (mg/kg x5) subcutaneous dosage; Cured/treated = 1/6 on day 7
[21] = tested on: Mus musculus; assay: Antimalarial activity was determined by Blood schizonticidal activity in mice (Mus musculus) infected with Plasmodium berghei K173 at 10 (mg/kgx5) subcutaneous dosage; Cured/treated = 0/5 on day 7
[22] = tested on: Mus musculus; assay: Antimalarial activity was determined by Blood schizonticidal activity in mice (Mus musculus) infected with Plasmodium berghei K173 at 5 (mg/kg x5) subcutaneous dosage; Cured/treated = 5/5
[23] = tested on: Mus musculus; assay: Antimalarial activity was determined by blood schizonticidal activity in mice (Mus musculus) infected with Plasmodium berghei K173 at 2.5 (mg/kgx5) subcutaneous dosage; Cured/treated = 0/4 on day 7
[24] = tested on: Mus musculus; assay: Antimalarial activity was determined by Blood schizonticidal activity in mice (Mus musculus) infected with Plasmodium berghei K173 at 10 (mg/kgx5) subcutaneous dosage; Cured/treated = 6/6
[25] = tested on: Mus musculus; assay: Antimalarial activity was determined by Blood schizonticidal activity in mice (Mus musculus) infected with Plasmodium berghei K173 at 5 (mg/kg x5) subcutaneous dosage; Cured/treated = 2/6 on day 7
[26] = tested on: Mus musculus; assay: Antimalarial activity was determined by Blood schizonticidal activity in mice (Mus musculus) infected with Plasmodium berghei K173 at 5 (mg/kg x5) subcutaneous dosage; Cured/treated = 0/5 on day 7

SMILES: C[C@@H]1CC[C@@H]2[C@]34OO[C@@](C)(CCC13)O[C@H]4O[C@]2(C)CO/C(S)=N\c1ccc(F)cc1 (some centres not stated)
- Cured/treated [1]: 0
- Cured/treated [2]: 0
- Cured/treated [3]: 6

SMILES: CCOC(=O)[C@@]1(C)O[C@@H]2OC3(C)CCC4[C@H](C)CC[C@@H]1[C@]42OO3 (single isomer, unassigned)
- Cured/treated [4]: 0

SMILES: C[C@@H]1CC[C@@H]2[C@]34OOC(C)(CCC13)O[C@H]4O[C@]2(C)C(=O)OCCCl (single isomer, unassigned)
- Cured/treated [5]: 0
- Cured/treated [6]: 0

SMILES: CCN(CC)CCOC[C@@]1(C)O[C@@H]2O[C@]3(C)CCC4[C@H](C)CC[C@@H]1[C@]42OO3 (some centres not stated)
- Cured/treated [5]: 0
- Cured/treated [7]: 0

SMILES: Cc1ccc(S(=O)(=O)OC[C@@]2(C)O[C@@H]3OC4(C)CCC5[C@H](C)CC[C@@H]2[C@]53OO4)cc1 (single isomer, unassigned)
- Cured/treated [8]: 5

SMILES: C[C@@H]1CC[C@@H]2[C@]34OO[C@@](C)(CCC13)O[C@H]4O[C@]2(C)CO/C(S)=N/c1ccccc1 (some centres not stated)
- Cured/treated [9]: 6

SMILES: C[C@@H]1CC[C@@H]2[C@]34OO[C@@](C)(CCC13)O[C@H]4O[C@]2(C)COC(=O)C(=O)O (some centres not stated)
- Cured/treated [10]: 0

SMILES: C[C@@H]1CC[C@@H]2[C@]34OOC(C)(CCC13)O[C@H]4O[C@]2(C)C(=O)OCCBr (single isomer, unassigned)
- Cured/treated [5]: 0

SMILES: C[C@@H]1CC[C@@H]2[C@]34OOC(C)(CCC13)O[C@H]4O[C@]2(C)COC/C=C/c1ccccc1 (single isomer, unassigned)
- Cured/treated [5]: 0

SMILES: C[C@@H]1CC[C@@H]2[C@]34OOC(C)(CCC13)O[C@H]4O[C@]2(C)COC(=S)N1CCN(c2cccc(C(F)(F)F)c2)CC1 (single isomer, unassigned)
- Cured/treated [5]: 0

SMILES: C[C@@H]1CC[C@@H]2[C@]34OOC(C)(CCC13)O[C@H]4O[C@]2(C)COC(=O)CCCCl (single isomer, unassigned)
- Cured/treated [5]: 0

SMILES: C[C@@H]1CCC2[C@]34OOC(C)(CCC13)O[C@H]4O[C@]2(C)C(=O)O (single isomer, unassigned)
- Cured/treated [10]: 0

SMILES: C[C@@H]1CC[C@@H]2[C@]34OO[C@@](C)(CCC13)O[C@H]4O[C@]2(C)CO/C(S)=N/c1ccc(Cl)cc1 (some centres not stated)
- Cured/treated [11]: 26
- Cured/treated [12]: 11
- Cured/treated [13]: 28
- Cured/treated [14]: 19
- Cured/treated [15]: 16
- Cured/treated [16]: 10
- Cured/treated [17]: 22
- Cured/treated [18]: 6
- Cured/treated [19]: 34

SMILES: C[C@@H]1CCC2[C@]34OOC(C)(CCC13)O[C@H]4O[C@]2(C)CO (single isomer, unassigned)
- Cured/treated [10]: 0

SMILES: C[C@@H]1CC[C@@H]2[C@]34OOC(C)(CCC13)O[C@H]4O[C@]2(C)C(=O)OCCCCl (single isomer, unassigned)
- Cured/treated [5]: 0

SMILES: C[C@@H]1CC[C@@H]2[C@]34OOC(C)(CCC13)O[C@H]4O[C@]2(C)CC(=O)Oc1ccc([N+](=O)[O-])cc1 (single isomer, unassigned)
- Cured/treated [20]: 1

SMILES: C[C@@H]1CC[C@@H]2[C@]34OOC(C)(CCC13)O[C@H]4O[C@]2(C)C(=O)N1CCOCC1 (single isomer, unassigned)
- Cured/treated [10]: 0

SMILES: C[C@@H]1CC[C@@H]2[C@]34OO[C@@](C)(CCC13)O[C@H]4O[C@]2(C)CC(=O)ONc1ccc(Cl)cc1 (some centres not stated)
- Cured/treated [20]: 1
- Cured/treated [7]: 0

SMILES: C[C@@H]1CC[C@@H]2[C@]34OOC(C)(CCC13)O[C@H]4O[C@]2(C)COC(=O)CCl (single isomer, unassigned)
- Cured/treated [5]: 0

SMILES: CCOC(=O)c1cc(Cl)ccc1/N=C(/S)OC[C@@]1(C)O[C@@H]2O[C@]3(C)CCC4[C@H](C)CC[C@@H]1[C@]42OO3 (some centres not stated)
- Cured/treated [10]: 0

SMILES: C[C@@H]1CC[C@@H]2[C@]34OOC(C)(CCC13)O[C@H]4O[C@]2(C)COC=O (single isomer, unassigned)
- Cured/treated [21]: 0

SMILES: C[C@@H]1CC[C@@H]2[C@]34OOC(C)(CCC13)O[C@H]4O[C@]2(C)/C=C/c1ccc(C(F)(F)F)cc1 (single isomer, unassigned)
- Cured/treated [22]: 5
- Cured/treated [23]: 0

SMILES: C[C@@H]1CC[C@@H]2[C@]34OOC(C)(CCC13)O[C@H]4O[C@]2(C)C(=O)OCCCCCCCCCl (single isomer, unassigned)
- Cured/treated [4]: 0

SMILES: C#CCOC[C@@]1(C)O[C@@H]2OC3(C)CCC4[C@H](C)CC[C@@H]1[C@]42OO3 (single isomer, unassigned)
- Cured/treated [5]: 0
- Cured/treated [24]: 6

SMILES: CCOC(=O)C(=C[C@@]1(C)O[C@@H]2OC3(C)CCC4[C@H](C)CC[C@@H]1[C@]42OO3)C(=O)OCC (single isomer, unassigned)
- Cured/treated [21]: 0

SMILES: C=CC/N=C(\S)OC[C@@]1(C)O[C@@H]2O[C@]3(C)CCC4[C@H](C)CC[C@@H]1[C@]42OO3 (some centres not stated)
- Cured/treated [10]: 0

SMILES: C[C@@H]1CC[C@@H]2[C@]34OO[C@@](C)(CCC13)O[C@H]4O[C@]2(C)C(=O)Sc1ccccc1 (some centres not stated)
- Cured/treated [25]: 2

SMILES: C[C@@H]1CC[C@@H]2[C@]34OO[C@@](C)(CCC13)O[C@H]4O[C@]2(C)C(=O)N1CCN(C)CC1 (some centres not stated)
- Cured/treated [10]: 0

SMILES: C=CCOC(=O)[C@@]1(C)O[C@@H]2OC3(C)CCC4[C@H](C)CC[C@@H]1[C@]42OO3 (single isomer, unassigned)
- Cured/treated [10]: 0

SMILES: C[C@@H]1CC[C@@H]2[C@]34OOC(C)(CCC13)O[C@H]4O[C@]2(C)COS(C)(=O)=O (single isomer, unassigned)
- Cured/treated [5]: 0

SMILES: C[C@@H]1CC[C@@H]2[C@]34OOC(C)(CCC13)O[C@H]4O[C@]2(C)COS(=O)(=O)c1ccccc1 (single isomer, unassigned)
- Cured/treated [10]: 0

SMILES: CCOC(=O)/C=C\[C@@]1(C)O[C@@H]2OC3(C)CCC4[C@H](C)CC[C@@H]1[C@]42OO3 (single isomer, unassigned)
- Cured/treated [26]: 0
